Test results reported in patent US20240101535A1, “DIHYDROISOQUINOLINONE DERIVATIVE AND APPLICATION THEREOF” (ETERN BIOPHARMA (SHANGHAI) CO., LTD., priority 2020, published 2024).
pIC50: −log10 of the molar value. Counter-ions that a name gives are not always drawn. Like-named read-outs stand apart in the source and are kept apart here.

Key:
[1] = biological target: WDR5 protein (22-334aa) with MLL1 polypeptide (3672-3773aa) (Homo sapiens, UniProt P61964); assay: WDR5-MLL PPI inhibitory activity test (HTRF); type: binding; conditions: His-tagged WDR5 and biotin-tagged MLL1 polypeptide
Outline: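 His-tagged WDR5 (42 nM working solution) was preincubated with compound for 60 min at room temperature in 25 mM HEPES pH 7.5, 100 mM NaCl, 0.05% Tween 20 (final DMSO 0.5%). Biotin-MLL1 peptide (333 nM working solution) was then added for 10 min, followed by Eu-cryptate/streptavidin-APC detection for 60 min. The 665/620 nm ratio gave IC50.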

[2] = tested on: MV4-11 cells; assay: MV4-11 cell proliferation inhibition experiment (CellTiter-Glo); type: cell-based; conditions: 6 days
[3] = tested on: Jurkat cells; assay: Jurkat cell proliferation inhibition experiment (CellTiter-Glo); type: cell-based; conditions: for pIC50: Homo sapiens, 144 h, Jurkat cells, 6 days, CellTiter-Glo, read-out: Jurkat cell proliferation inhibitory activity IC50; for selectivity: ratio of Jurkat cell IC50 to MV4-11 cell IC50
Procedure: Test Example 3: Jurkat (ATCC: TIB-152) Cell Proliferation Inhibition Experiment
ATP in living cells was quantitatively detected by CellTiter-Glo (Promega-G7573) Luminescence Cell Viability Assay Kit to determine the effect of the compounds to be tested on cell proliferation. • Step 1: Jurkat cells were seeded in 96-well plates (Greiner-655098) at a density of 1,500 cells per well with a volume of 140 μL per well; Cell culture medium components included RPM11640 (Gibco-A10491-01)+10% FBS (Gibco-10099-141C)+1% Penicillin-Streptomycin (5,000 U/mL, Gibco-15070-063). • Step 2: On the day of cell seeding, the cells were treated with the compound to be tested. The compound to be tested was diluted with a 3-fold gradient, and a total of 9 concentration gradients were set. DMSO (Sigma, D2650) with 0.5% final concentration or a DMSO solution containing the compound to be tested was added per well with 2 or 3 replicate wells at each concentration point. The plates were incubated at 37° C. in a 5% CO2 incubator (Thermo Scientific Steri-Cycle 371) for 6 days. • Step 3: The cell viability in the control and treatment groups was detected with CellTiter-Glo Luminescent Cell Viability Assay Kit. 50 μL of CellTiter-Glo was added per well, mixed well, and incubated for 15 min at room temperature protected from light. According to the kit instructions, the chemiluminescence signal was read using a multifunctional microplate reader (EnVision, PerkinElmer).
The inhibition percentage (%) of the compound at each concentration point was calculated by the following formula:
Inhibition Percentage (%)=(1−signal value of the group treated with the compound/signal value of the group treated with DMSO)*100.
The value of cell proliferation semi-inhibitory concentration IC50 was calculated using GraphPad Prism software, and the results are shown in Table 3. The ratio of Jurkat cell proliferation inhibitory activity IC50 to MV4-11 cell proliferation inhibitory activity IC50 may be further calculated to obtain selectivity.

[4] = Homo sapiens, 144 h, read-out: MV4-11 cell proliferation inhibitory activity IC50
[5] = Homo sapiens, 144 h, read-out: cell proliferation inhibitory activity

Molecule	pIC50 [1]	pIC50 [2, 4]	pIC50 [2, 5]	pIC50 [3]	pIC50 ([2]; read-out: cell proliferation inhibitory activity)	selectivity [3]
CCOc1cc([C@H](C)N2C[C@@]3(CC3(F)F)c3c(CN(C)C)cc(Cn4ccnc4NC)cc3C2=O)ncc1C#N (stereo in doubt) [Compound 94, 6-(-1-(5′-((dimethylamino)methyl)-2,2-difluoro-7′-((2-(methylamino)-1H-imidazol-1-yl)methyl)-1′-one-1′H-spiro[cyclopropan-1,4′-isoquinoline]-2′(3′H)-yl)ethyl)-4-ethoxynicotinonitrile formate salt]	> 7.70	8.52	> 7.30	5.85		466 time
CCOc1cc([C@H](C)N2CC3(CC3)c3c(CN(C)C)cc(Cn4ccnc4NC)cc3C2=O)ncc1F [Compound 1, (S)-5′-((dimethylamino)methyl)-2′-(1-(4-ethoxy-5-fluoropyridine-2-yl)ethyl)-7′-((2-(methylamino)-1H-imidazol-1-yl)methyl)-2′,3′-dihydro-1′H-spiro[cyclopropan-1,4′-isoquinoline]-1′-one]	> 7.70	7.72	6.70 to 7.30	5.17		357 time
CCOc1cc([C@H](C)N2CC3(CCC3)c3c(CN(C)C)cc(Cn4ccnc4NC)cc3C2=O)ncc1C#N [Compound 23, (S)-6-(1-(5′-((dimethylamino)methyl)-7′-((2-(methylamino)-1H-imidazol-1-yl)methyl)-1′-one-1′H-spiro[cyclobutan-1,4′-isoquinoline]-2′(3′H)-yl)ethyl)-4-ethoxynicotinonitrile]	> 7.70	8.40	> 7.30	5.85		350 time
CCOc1cc([C@H](C)N2CC3(CCC3)c3c(CN4CCN(S(C)(=O)=O)CC4)cc(Cn4ccnc4NC)cc3C2=O)ncc1C#N [Compound 80, (S)-4-ethoxy-6-(1-(7′-((2-(methylamino)-1H-imidazol-1-yl)methyl)-5′-((4-(methylsulfonyl)piperazin-1-yl)methyl)-1′-one-1′H-spiro[cyclobutan-1,4′-isoquinoline]-2′(3′H)-yl)ethyl)nicotinonitrile]	> 7.70		> 7.30			
CCOc1cc([C@H](C)N2CC3(CCC3)c3c(CN4CCC(OC)CC4)cc(Cn4ccnc4NC)cc3C2=O)ncc1C#N [Compound 81]	> 7.70		> 7.30			
CCOc1cc(CN2CC3(CCC3)c3c(CN4CC(F)(F)C4)cc(Cn4ccnc4NC)cc3C2=O)ncc1C#N [Compound 82, 6-((5′-((3,3-difluoroazetidinyl-1-yl)methyl)-7′-((2-(methylamino)-1H-imidazol-1-yl)methyl)-1′-one-1′H-spiro[cyclobutan-1,4′-isoquinoline]-2′(3′H)-yl)methyl)-4-ethoxynicotinonitrile]	> 7.70		> 7.30			
CCOc1cc([C@H](C)N2CC3(CCC3)c3c(CN4CCN(C)CC4)cc(Cn4ccnc4NC)cc3C2=O)ncc1F [Compound 83, (S)-2′-(1-(4-ethoxy-5-fluoropyridine-2-yl)ethyl)-7′-((2-(methylamino)-1H-imidazol-1-yl)methyl)-5′-((4-methylpiperazin-1-yl)methyl)-2′,3′-dihydro-1′H-spiro[cyclobutan-1,4′-isoquinoline]-1′-one]	> 7.70		> 7.30			
CCOc1cc([C@H](C)N2CC3(CCC3)c3c(CN4CC[C@@H](O)C4)cc(Cn4ccnc4NC)cc3C2=O)ncc1F [Compound 84, 2′-((S)-1-(4-ethoxy-5-fluoropyridine-2-yl)ethyl)-5′-(((R)-3hydroxylpyrrolidin-1-yl)methyl)-7′-((2-(methylamino)-1H-imidazol-1-yl)methyl)-2′,3′-dihydro-1′H-spiro[cyclobutyl-1,4′-isoquinoline]-1′-one]	> 7.70		> 7.30			
CCOc1cc([C@H](C)N2CC3(CCC3)c3c(CN4CC[C@H](O)C4)cc(Cn4ccnc4NC)cc3C2=O)ncc1F [Compound 85, 2′-((S)-1-(4-ethoxy-5-fluoropyridine-2-yl)ethyl)-5′-(((S)-3-hydroxylpyrrolidin-1-yl)methyl)-7′-((2-(methylamino)-1H-imidazol-1-yl)methyl)-2′,3′-dihydro-1′H-spiro[cyclobutan-1,4′-isoquinoline]-1′-one]	> 7.70		> 7.30			
CCOc1cc(CN2CC3(CCC3)c3c(CN4CCN(C)CC4)cc(Cn4ccnc4NC)cc3C2=O)nn1C [Compound 87, 2′-((5-ethoxy-1-methyl-1H-pyrazole-3-yl)methyl)-7′-((2-(methylamino)-1H-imidazol-1-yl)methyl)-5′-((4-methylpiperazin-1-yl)methyl)-2′,3′-dihydro-1′H-spiro[cyclobutan-1,4′-isoquinoline]-1′-one]	> 7.70		> 7.30			
CCOc1cc([C@H](C)N2C[C@]3(CC3(F)F)c3c(CN(C)C)cc(Cn4ccnc4NC)cc3C2=O)ncc1F [Compound 91, (S)-5′-((dimethylamino)methyl)-2′-((S)-1-(4-ethoxy-5-fluoropyridine-2-yl)ethyl)-2,2-difluoro-7′-((2-(methylamino)-1H imidazol-1-yl)methyl)-2′, 3′-dihydro-1′H-spiro[cyclopropan-1,4′-isoquinoline]-1′-one]	> 7.70	8.00	> 7.30	5.51		310 time
CCOc1cc([C@H](C)N2CC3(CC(F)(F)C3)c3c(CN(C)C)cc(Cn4ccnc4NC)cc3C2=O)ncc1F [Compound 98]	> 7.70		6.70 to 7.30			

Second part, led by results:

pIC50 [1]	pIC50 [2, 4]	pIC50 [2, 5]	pIC50 [3]	pIC50 ([2]; read-out: cell proliferation inhibitory activity)	Molecule	selectivity [3]
> 7.70	8.40	> 7.30	5.92		CCOc1cc([C@H](C)N2CC3(CC(F)(F)C3)c3c(CN(C)C)cc(Cn4ccnc4NC)cc3C2=O)ncc1C#N [Compound 99]	300 time
> 7.70	8.30	> 7.30	5.80		[2H]C([2H])([2H])N(Cc1cc(Cn2ccnc2NC)cc2c1C1(CCC1)CN(C(C)c1cc(OCC)c(C#N)cn1)C2=O)C([2H])([2H])[2H] (stereo not drawn) [Compound 100, 6-(1-(5′-((bis(methyl-d3)amino)methyl)-7′-((2-(methylamino)-1H-imidazol-1′-yl)methyl)-1′-oxo-1′H-spiro [cyclobutan-1,4′-isoquinoline]-2′(3′H)-yl)ethyl)-4-ethoxynicotinonitrile]	320 time
> 7.70		> 7.30			[2H]C(C)(c1cc(OCC)c(C#N)cn1)N1CC2(CCC2)c2c(CN(C)C)cc(Cn3ccnc3NC)cc2C1=O (stereo not drawn) [Compound 101]	
> 7.70		> 7.30			CNc1nccn1Cc1cc(CN(C)C)c2c(c1)C(=O)N(C(C)c1ccc(F)c(OC)c1)CC21CCC1 (stereo not drawn) [Compound 107, 5′-((dimethylamino)methyl)-2′-(1-(4-fluoro-3-methoxyphenyl)ethyl)-7′-((2-(methylamino)-1H-imidazol-1-yl)methyl)-2′,3′-dihydro-1′H-spiro[cyclobutan-1,4′-isoquinoline]-1′-one]	
> 7.70		> 7.30			[2H]C([2H])([2H])C([2H])([2H])Oc1cc(C(C)N2CC3(CCC3)c3c(CN(C)C)cc(Cn4ccnc4NC)cc3C2=O)ncc1C#N (stereo not drawn) [Compound 111, 6-(1-(5′-((dimethylamino)methyl)-7′-((2-(methylamino)-1H-imidazol-1-yl)methyl)-1′-oxo-1′H-spiro[cyclobutan-1,4′-isoquinoline]-2′(3′H)-yl)ethyl)-4-(ethoxy-d5)nicotinonitrile]	
> 7.70				> 7.30	(S)-4-ethoxy-6-(1-(7′-((2-(methylamino)-1H-imidazol-1-yl)methyl)-5′-(morpholinomethyl)-1′-one-1′H-spiro[cyclopropan-1,4′-isoquinoline]-2′(3′H)-yl)ethyl)nicotinonitrile [Compound 60]	
